Reference: patent US20030049267A1, “Systemic immune response induced by mucosal administration of lipid-tailed polypeptides without adjuvant” (INSTITUT PASTEUR, priority 1999, published 2003)
*: point of attachment. Palmitoyl = CCCCCCCCCCCCCCCC(=O)*

What was measured:
Format in all cases: in vivo
[1] = tested on: ganglia sub-mandibulaires cells of BALB/c mice
C3H/HeJ mice = experiment: Isotype analysis of polypeptide-specific serum antibodies (ELISA)
[2] = tested on: BALB/c, C3H/HeJ, or C57BL/6 mice; experiment: Serum polypeptide-specific IgG ELISA after immunization with LSA3-NRII polypeptides
Description: To investigate the ability of lipid-tailed polypeptides to induce systemic antibody responses using mucosal route, the LSA3-NRII lipid-tailed polypeptide was administrated either intranasally (I.N.) or sub-lingually (S.L.) in BALB/c, C3H/HeJ which were found previously to respond strongly to the epitopes of LSA3-NRII, or C57BL/6 mice which is poorly responsive. Negative and positive controls received respectively, the non-lipidated polypeptide administrated by IN and S.L. route, or the same lipid-tailed polypeptide injected subcutaneously (S.C.) without adjuvant.
Individual blood samples were obtained via the retro-orbital plexus by 9 to 15 days post immunization (dpi) and sera were stored at-70i C until assayed for IgG, IgA and IgM polypeptide- and parasite-specific Abs. The presence of anti-peptide antibodies in sera was determined using Enzyme-linked immunosorbent assay (ELISA) as reported previously (BenMohamed et coll., 1997). ELISA plates (Nunc, Roskilde, Denmark) were coated overnight at 4i C with 0.1 ml of LSA3-NRII or LSA1-J polypeptide solution at 3 zg/ml in PBS buffer pH 7.4 containing 3% BSA. The LSA1-J polypeptide was used as the irrelevant control of LSA3-NRII and vice versa. The plates were washed twice in PBS with 0.01% Tween-20 (PBS-T), blocked for 1 hr in PBS-T supplemented with 1% BSA prior to the addition of 0.1 ml of 1/100 dilution of mouse sera. The plates were then incubated at 37iC for one hour. After washing, the bound IgG were detected using peroxidase-conjugated goat anti-mouse IgG (Biosys, Compiegne, France) added at a 1/2000 dilution. Following incubation at 37iC for 1 hour and a final wash, 50 μl of 0.30% H2O2 containing orthophenylenediamine dihydrochloride (OPD, Sigma, St. Louis), dissolved in 0.1 M citrate buffer (pH 5.0) were added to each well at room temperature. The OD450 nm was measured using a multichannel spectrophotometer (Titertek Multiskan MCC. 340). Individual sera from all groups were diluted 1/100 and analyzed separately. Preimmune sera were used as negative controls and the results were expressed either as optical density (OD) at 450nm or as ELISA-RATIO calculated as follows: OD450 nm postimmune sera divided by OD450 nm preimmune sera. […] Isotype analysis of mouse was carried out using class specific […] Goat anti-Mouse IgA, IgM, IgGI, IgG2a, IgG2b or IgG3 HRP-Labeled (Southern Biotechnology Associates, Birmingham, USA) added at a 1/2000 dilution in PBS-T, as previously described (BenMohamed et coll., 1997).

[3] = tested on: P. falciparum sporozoites and hepatic schizonts; experiment: Immunofluorescent Ab assay (IFAT) of sera from mucosally immunized mice
Method: FIG. 2: Mucosal immunization elicits parasite-specific antibody responses. Sera were obtained from C3H/HeJ mice at 2 weeks post-immunization by either nasal or sub-lingual route and assayed fro recognition of (a) P. falciparum sporozoites and (B) hepatic schizonts in an IFI assay as described in Material and Methods. The data are representative of three independent experiments.
The reactivity of the sera against native proteins from various stages of the parasite were analyzed by IFAT using either (i) P. falciparum NF54 strain sporozoites (a gift of W. Eling), or (ii) sections from liver biopsies containing day 5 P. falciparum liver schizonts, or (iii) day 6 ½ P. falciparum liver schizonts obtained from a Chimpanzee. IFAT-labeled anti-human IgG, -A, -M (Diagnostic Pasteur France) or anti-mouse (Cappel. Wester Chester. PA) diluted {fraction (1/200 )} were employed as second Abs.

[4] = tested on: spleen and inguinal lymph node cells of C3H/HeJ mice; experiment: Lymphocyte proliferative assay after immunization with LSA3-NRII polypeptides
Method: FIG. 3: Systemic cellular immune responses are electited by presentation of lipid-tailed polypeptides to the nasal and sub-lingual mucosal surfaces. Groups of five C3H/HeJ mice were administrated with LSA3-NRII lipid-tailed (black bars) or non-lipidated polypeptide (hatched bars) either a) intranasally, b) sub-lingually, or c) subcutaneously. Two weeks after two administrations, cell suspensions from individual spleens were assayed for in vitro proliferation to the recall polypeptide. Results are expressed as Δ cpm. The background cpm, in unstimulated cells were 1548 fro intranasal, 2356 for sub-lingual and 1965 for subcutaneous routs. Bars represent the mean Δ cpm ± SD in each group. The data were similar and are representative of three separate experiments.

Substance: Concanavaline A [CON A, reference compound]
- immune response (CFSE shift), positive control ([1]; in vitro positive control): maximum immune response

Substance: Ac-LEESQVNDDIFNSLVKSVQQEQQHNVK(Pam)NH2 (Ac-LEESQVNDDIFNSLVKSVQQEQQHNVK(Palmitoyl)-NH2; SMILES CCCCCCCCCCCCCCCC(=O)NCCCC[C@H](NC(=O)[C@@H](NC(=O)[C@H](CC(N)=O)NC(=O)[C@H](Cc1c[nH]cn1)NC(=O)[C@H](CCC(N)=O)NC(=O)[C@H](CCC(N)=O)NC(=O)[C@H](CCC(=O)O)NC(=O)[C@H](CCC(N)=O)NC(=O)[C@H](CCC(N)=O)NC(=O)[C@@H](NC(=O)[C@H](CO)NC(=O)[C@H](CCCCN)NC(=O)[C@@H](NC(=O)[C@H](CC(C)C)NC(=O)[C@H](CO)NC(=O)[C@H](CC(N)=O)NC(=O)[C@H](Cc1ccccc1)NC(=O)[C@@H](NC(=O)[C@H](CC(=O)O)NC(=O)[C@H](CC(=O)O)NC(=O)[C@H](CC(N)=O)NC(=O)[C@@H](NC(=O)[C@H](CCC(N)=O)NC(=O)[C@H](CO)NC(=O)[C@H](CCC(=O)O)NC(=O)[C@H](CCC(=O)O)NC(=O)[C@H](CC(C)C)NC(C)=O)C(C)C)[C@@H](C)CC)C(C)C)C(C)C)C(C)C)C(N)=O) [LSA3-NRII lipid-tailed polypeptide, P. falciparum LSA-3 derived polypeptide with palmitoyl tail on side chain of C-terminal lysylamide]
- anti-peptide IgA, IgM and IgG3 (C3H/HeJ mice; all groups (I.N., S.L., S.C.)): low and similar titers
- serum antibody isotype response (C3H/HeJ mice; mucosal administration (I.N., S.L.)): preferential IgG2a
- serum antibody isotype response (C3H/HeJ mice; subcutaneous route): dominant IgG1
- antibody response ([2]; C57BL/6 strain, mucosal or subcutaneous administration): No antibody response
- polypeptide-specific antibody responses in serum (ELISA) ([2]; I.N. or S.L. administration, without adjuvant, BALB/c and C3H/HeJ, serum two weeks after the second administration): high titers
- mean titers of IgG antibodies, mucosal routes versus S.C. route ([2]; both mucosal routes (I.N., S.L.) compared with S.C., p<0.05): significantly higher
- polypeptide specific antibody titers, sub-lingual versus intranasal groups ([2]; p<0.05 in BALB/c and p<0.01 in C3H/HeJ): significantly higher
- reactivity of induced Abs with infected RBC's ([3]; different steps of intra-erythrocytic maturation): did not react
- reactivity of induced Abs with intact parasite by IFAT ([3]; sera of mucosally immunized BALB/c and C3H/HeJ, sporozoite and liver stages): react with the intact parasite
- proliferative responses against irrelevant polypeptide (LSA1-J) ([4]; Ag specificity control): lack of responses
- proliferative response in inguinal lymph nodes, maximal delta cpm ([4]; S.L. (first value)): 12525 cpm
- proliferative responses in spleen cells ([4]; S.L. or I.N. application, without mucosal adjuvant, recall polypeptide): strong proliferative responses
- phenotype of lymphoproliferative responses ([4]; mucosal administration, abrogated by antibodies against CD4 but not by anti-CD8): CD4 phenotype
- proliferative response in inguinal lymph nodes, maximal delta cpm ([4]; printed 'in S.L'): 16189 cpm
- proliferative responses, mucosally versus subcutaneously immunized animals ([4]; same dose, P<0.05): higher levels

Substance: Nh2-K(NεPam)GRQYIKANSKFIGITERGRILKEPVHGV-COOH [TT-pol. (HIV)]
- shift of fluorescence (CFSE), immune response ([1]; mouse, in vivo): as intense as that provided by positive CON A control
